Where “and” joins values, the source holds several entries; their conditions need not be identical. Identical values can stand only once.
Biological target: T1, human FLAP (Homo sapiens, UniProt P20292)
T1 sequence (P20292 1-161): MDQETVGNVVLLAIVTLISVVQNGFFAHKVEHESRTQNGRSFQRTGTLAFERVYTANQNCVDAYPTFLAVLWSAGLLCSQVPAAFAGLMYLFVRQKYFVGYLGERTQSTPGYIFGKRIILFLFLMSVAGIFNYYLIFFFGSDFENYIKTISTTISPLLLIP
Test: FLAP binding assay
Details: individual tests 1-8; read-out: IC50 (nM), Inhibition of FLAP Radioligand Binding

IC50: 4.9 nM and 4.1 nM and 1.8 nM
SMILES: CCOc1ccc(-c2ccc(Cn3c(CC(C)(C)C(=O)[O-])c(SC(C)(C)C)c4cc(OCc5ccc(C)cn5)ccc43)cc2)cn1.[Na+] [Compound 2, sodium 3-[3-(tert-butylsulfanyl)-1-[4-(6-ethoxy-pyridin-3-yl)benzyl]-5-(5-methyl-pyridin-2-yl-methoxy)-1H-indol-2-yl]-2,2-dimethylpropionate]
